Measurements as given in PubChem BioAssay (NCI).
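Each compound was tested at five concentrations against cells in 96-well plates for 48 hours. Here, GI50 denotes the concentration required for 50% inhibition of growth. TGI: concentration producing complete growth inhibition.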

Key:
Test in all cases: NCI tumour cell line growth inhibition, 48 h
[1] = test system: SK-MEL-2 melanoma
[2] = test system: SW-620 colon
[3] = test system: OVCAR-5 ovarian
[4] = test system: MALME-3M melanoma
[5] = test system: UACC-62 melanoma
[6] = test system: A549 NSCLC
[7] = test system: NCI-H460 lung
[8] = test system: MCF7 breast
[9] = test system: M14 melanoma
[10] = test system: SF-295 CNS
[11] = test system: SK-MEL-5 melanoma
[12] = test system: SK-OV-3 ovarian
[13] = test system: NCI-H522 lung
[14] = test system: IGROV1 ovarian
[15] = test system: RPMI-8226 leukemia
[16] = test system: MOLT-4 leukemia
[17] = test system: HOP-92 NSCLC
[18] = test system: HT29 colon
[19] = test system: HCT-116 colon
[20] = test system: SN12C renal
[21] = test system: COLO 205 colon
[22] = test system: SNB-75 CNS
[23] = test system: K-562 leukemia
[24] = test system: SF-539 CNS
[25] = test system: HL-60(TB) leukemia
[26] = test system: NCI-H226 lung
[27] = test system: OVCAR-8 ovarian
[28] = test system: NCI-H23 lung
[29] = test system: KM12 colon
[30] = test system: RXF 393 renal
[31] = test system: MDA-MB-435
[32] = test system: SK-MEL-28 melanoma
[33] = test system: LOX IMVI melanoma
[34] = test system: EKVX NSCLC
[35] = test system: DU-145 prostate
[36] = test system: SF-268 CNS
[37] = test system: HCT-15 colon
[38] = test system: HS 578T breast
[39] = test system: OVCAR-4 ovarian
[40] = test system: 786-0 renal
[41] = test system: HCC-2998 colon
[42] = test system: OVCAR-3 ovarian
[43] = test system: HOP-62 NSCLC
[44] = test system: CCRF-CEM leukemia
[45] = test system: ACHN renal
[46] = test system: TK-10 renal
[47] = test system: NCI/ADR-RES ovarian
[48] = test system: A498 renal
[49] = test system: BT-549 breast
[50] = test system: CAKI-1 renal
[51] = test system: U251 CNS
[52] = test system: PC-3 prostate
[53] = test system: UACC-257 melanoma

**Q.** What does the source list for `CCCC[C@@H](COC(=O)N(Cc1cccs1)Cc1cccs1)NC(=O)N[C@@H](CC(=O)OC)c1ccc2c(c1)OCO2`?
**A.** GI50 [1]: > 100 µM; TGI [1]: > 100 µM; GI50 [2]: > 100 µM; TGI [2]: > 100 µM; GI50 [3]: > 100 µM; TGI [3]: > 100 µM; GI50 [4]: > 100 µM; TGI [4]: > 100 µM; GI50 [5]: > 100 µM; TGI [5]: > 100 µM; GI50 [6]: 67.7 µM; TGI [6]: > 100 µM; GI50 [7]: > 100 µM; TGI [7]: > 100 µM; GI50 [8]: > 100 µM; TGI [8]: > 100 µM; GI50 [9]: > 100 µM; TGI [9]: > 100 µM; GI50 [10]: > 100 µM; TGI [10]: > 100 µM; GI50 [11]: > 100 µM; TGI [11]: > 100 µM; GI50 [12]: > 100 µM; TGI [12]: > 100 µM; GI50 [13]: > 100 µM; TGI [13]: > 100 µM; GI50 [14]: > 100 µM; TGI [14]: > 100 µM; GI50 [15]: 8.11 µM; TGI [15]: > 100 µM; GI50 [16]: 5.19 µM; TGI [16]: > 100 µM; GI50 [17]: > 100 µM; TGI [17]: > 100 µM; GI50 [18]: > 100 µM; TGI [18]: > 100 µM; GI50 [19]: > 100 µM; TGI [19]: > 100 µM; GI50 [20]: > 100 µM; TGI [20]: > 100 µM; GI50 [21]: > 100 µM; TGI [21]: > 100 µM; GI50 [22]: > 100 µM; TGI [22]: > 100 µM; GI50 [23]: 59.6 µM; TGI [23]: > 100 µM; GI50 [24]: > 100 µM; TGI [24]: > 100 µM; GI50 [25]: > 100 µM; TGI [25]: > 100 µM; GI50 [26]: > 100 µM; TGI [26]: > 100 µM; GI50 [27]: > 100 µM; TGI [27]: > 100 µM; GI50 [28]: > 100 µM; TGI [28]: > 100 µM; GI50 [29]: > 100 µM; TGI [29]: > 100 µM; GI50 [30]: > 100 µM; TGI [30]: > 100 µM; GI50 [31]: > 100 µM; TGI [31]: > 100 µM; GI50 [32]: > 100 µM; TGI [32]: > 100 µM; GI50 [33]: > 100 µM; TGI [33]: > 100 µM; GI50 [34]: > 100 µM; TGI [34]: > 100 µM; GI50 [35]: > 100 µM; TGI [35]: > 100 µM; GI50 [36]: > 100 µM; TGI [36]: > 100 µM; GI50 [37]: > 100 µM; TGI [37]: > 100 µM; GI50 [38]: > 100 µM; TGI [38]: > 100 µM; GI50 [39]: > 100 µM; TGI [39]: > 100 µM; GI50 [40]: > 100 µM; TGI [40]: > 100 µM; GI50 [41]: > 100 µM; TGI [41]: > 100 µM; GI50 [42]: > 100 µM; TGI [42]: > 100 µM; GI50 [43]: > 100 µM; TGI [43]: > 100 µM; GI50 [44]: > 100 µM; TGI [44]: > 100 µM; GI50 [45]: > 100 µM; TGI [45]: > 100 µM; GI50 [46]: > 100 µM; TGI [46]: > 100 µM; GI50 [47]: > 100 µM; TGI [47]: > 100 µM; GI50 [48]: > 100 µM; TGI [48]: > 100 µM; GI50 [49]: > 100 µM; TGI [49]: > 100 µM; GI50 [50]: > 100 µM; TGI [50]: > 100 µM; GI50 [51]: > 100 µM; TGI [51]: > 100 µM; GI50 [52]: 9.09 µM; TGI [52]: > 100 µM; GI50 [53]: > 100 µM; TGI [53]: > 100 µM
